Each structure is given as a SMILES string. Counter-ions that a name gives are not always drawn. Like-named read-outs stand apart in the source and are kept apart here.

Among the data in patent US5026858A, “Piperidine derivative” (Walton S.A., priority 1976, dated 1991) are Ki and ED50 values, retold here.

The target of assay [1] is T1, dopamine sensitive adenylate cyclase of rat straitum (Rattus norvegicus, UniProt P18901).
T1 construct: adenylate cyclase of rat straitum; from tissue; host or cells: rat striatum
T1 sequence (P18901 whole entry): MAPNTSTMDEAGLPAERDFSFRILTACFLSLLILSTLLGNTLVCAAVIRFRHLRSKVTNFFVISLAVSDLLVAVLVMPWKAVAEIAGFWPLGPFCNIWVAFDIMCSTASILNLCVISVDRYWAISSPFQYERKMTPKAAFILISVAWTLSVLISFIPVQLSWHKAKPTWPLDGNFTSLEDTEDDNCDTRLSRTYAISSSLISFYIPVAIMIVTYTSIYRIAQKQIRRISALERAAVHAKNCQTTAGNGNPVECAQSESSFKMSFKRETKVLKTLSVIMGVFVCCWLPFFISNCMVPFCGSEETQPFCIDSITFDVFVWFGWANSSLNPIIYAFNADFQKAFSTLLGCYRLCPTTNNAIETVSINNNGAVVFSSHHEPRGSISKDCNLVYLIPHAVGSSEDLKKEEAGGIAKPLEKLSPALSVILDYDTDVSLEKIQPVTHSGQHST
Kind of assay: inhibition of dopamine sensitive adenylate cyclase of rat striatum. Type of assay: biochemical.

Assay [2] has as its target T2, [3H]haloperidol binding, rat limbic forebrain membranes (Rattus norvegicus, UniProt P61169).
T2 construct: striatal and limbic forebrain membranes; from tissue; host or cells: rat limbic forebrain membranes
Briefly: displacement of [3H]haloperidol from rat limbic forebrain membranes. As to conditions: Table 1, read-out: Displacement [3H]Haloperidol limbic: approximate KI. From the text:
(§1) ^(f) Approximate KI (nM) for displacement of [3Hhaloperidol from rat
(§2) striatal and limbic forebrain membranes.
(In general: Displacement assays read how much labelled ligand stays bound in the presence of the test substance.)

Assay [3] has as its target T3, [3H]haloperidol binding, rat striatal membranes (Rattus norvegicus, UniProt P61169).
T3 construct: striatal and limbic forebrain membranes; from tissue; host or cells: rat striatal membranes
Kind of assay: displacement of [3H]haloperidol from rat striatal membranes. The note with it: Table 1, read-out: Displacement [3H]Haloperidol striatum: approximate KI.
Description: as §1, §2

Assay [4] deals with apomorphineinduced gnawing behaviour. Kind of assay: inhibition of apomorphine-induced gnawing behaviour in the rat (oral). The format is in vivo. From the text:
| ^(b) Approximate oral ED50 value for inhibition of | apomorphineinduced gnawing behaviour in the rat (mg kg^-1) and | ^(b) Approximate oral ED50 value for inhibition of | apomorphineinduced gnawing behaviour in the rat (mg kg^-1) and […]

Assay [5] concerns apomorphineinduced vomiting. Briefly: inhibition of apomorphine-induced vomiting in the dog (oral). Type of assay: in vivo. The note with it: Canis lupus familiaris. An excerpt: | ^(b) Approximate oral ED50 value for inhibition of | apomorphineinduced gnawing behaviour in the rat (mg kg^-1) and | vomiting in the dog (μg kg^-1) | ^(b) Approximate oral ED50 value for inhibition of | apomorphineinduced gnawing behaviour in the rat (mg kg^-1) and | vomiting in the dog (μg kg^-1)

Where [6] appears, read: rat striatum, Table 1, read-out: Dopamine sensitive aden-cyclase: approximate KI.
Setting [7] is: approximate ED50, Table 2, read-out: Antiapomorphine rat: approximate oral ED50 for inhibition of apomorphine-induced gnawing.
Where [8] appears, read: approximate ED50, Table 2, read-out: Antiapomorphine dog: approximate oral ED50 for inhibition of apomorphine-induced vomiting.
Setting [9] is: approximate ED50, Table 1, read-out: Anti-apomorphine dog: approximate oral ED50 for inhibition of apomorphine-induced vomiting.
The mark [10] stands for this setting: approximate ED50, Table 1, read-out: Anti-apomorphine rat: approximate oral ED50 for inhibition of apomorphine-induced gnawing.

T3 sequence (P61169 whole entry): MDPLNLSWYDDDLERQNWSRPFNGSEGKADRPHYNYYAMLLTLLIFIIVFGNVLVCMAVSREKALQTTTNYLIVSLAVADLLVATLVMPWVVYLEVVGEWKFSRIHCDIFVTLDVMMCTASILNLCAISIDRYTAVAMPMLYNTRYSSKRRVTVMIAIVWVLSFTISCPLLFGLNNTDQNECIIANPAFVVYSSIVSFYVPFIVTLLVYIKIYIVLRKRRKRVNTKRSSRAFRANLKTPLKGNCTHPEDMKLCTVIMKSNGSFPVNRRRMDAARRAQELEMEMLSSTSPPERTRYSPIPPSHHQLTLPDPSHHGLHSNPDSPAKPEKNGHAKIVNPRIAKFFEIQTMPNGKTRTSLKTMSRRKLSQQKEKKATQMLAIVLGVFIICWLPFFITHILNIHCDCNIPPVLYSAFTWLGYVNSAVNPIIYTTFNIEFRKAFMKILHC
T2 sequence (P61169 whole entry): as above

What is called Ki is a measure of affinity in units of concentration, obtained from inhibition or displacement. By ED50 is commonly meant the midpoint of the dose-response relation. In the case of `COc1cc(N)c(Cl)cc1C(=O)NC1CCN(Cc2ccccc2)CC1` [Clebopride hydrochloride, reference compound], the Ki in assay [1] (setting [6]) turned out to be 5 nM; in assay [2], 5 nM; in assay [3], 25 nM. In addition, the ED50 in assay [4] (setting [7]) amounted to 2.5 mg/kg; in assay [5] (setting [8]), 0.04 mg/kg.
As to `CCOc1cc(N)c([N+](=O)[O-])cc1C(=O)NC1CCN(Cc2ccccc2)CC1` [EtO, NH2, NO2, H, phenyl, H, H, H, --, N-(1-benzylpiperid-4-yl)-2-ethoxy-4-amino-5-nitrobenzamide], the ED50 in assay [5] (setting [9]) is below 0.05 mg/kg.
Turning to `COc1cc(N)c([N+](=O)[O-])cc1C(=O)NC1CCN(Cc2ccccc2)CC1` [MeO, NH2, NO2, H, phenyl, H, H, H, --, N-(1-Benzylpiperid-4-yl)-2-methoxy-4-amino-5-nitrobenzamide], the Ki in assay [1] (setting [6]) worked out at 5 nM; in assay [2], 1 nM; in assay [3], 20 nM. Also, the ED50 is 140 mg/kg in assay [4] (setting [10]) and below 0.05 mg/kg in assay [5] (setting [9]).
For the molecule `COc1cc(N)c([N+](=O)[O-])cc1C(=O)NC1CCN(CCc2ccccc2)CC1` [MeO, NH2, NO2, H, phenyl, H, H, H, CH2, N-(1-phenethylpiperid-4-yl)-2-methoxy-4-amino-5-nitrobenzamide], the Ki in assay [1] (setting [6]) was determined as 1 nM; in assay [2], 1 nM; in assay [3] it was 10 nM. Further, the results for the ED50 in assay [4] (setting [10]) and in assay [5] (setting [9]) were 800 mg/kg and above 5 mg/kg, respectively.
`CCN(CC)CCNC(=O)c1cc(Cl)c(N)cc1OC` [Metoclopramide, reference compound] gave a Ki in assay [1] of 60 nM. For the same molecule, the results for the ED50 in assay [4] (setting [10]) and in assay [5] (setting [9]) were 13.6 mg/kg and 0.45 mg/kg, respectively.
`COc1cc(N)c([N+](=O)[O-])cc1C(=O)NC1CCN(Cc2ccc(Cl)cc2)CC1` [N-(1-p-chlorobenzylpiperid-4-yl)-2-methoxy-4-amino-5-nitrobenzamide]: the ED50 in assay [5] (setting [9]) was below 0.05 mg/kg.
Still for that read-out and setting: in the case of `COc1cc(N)c([N+](=O)[O-])cc1C(=O)NC1CCN(Cc2ccc(C)cc2)CC1` [N-(1-p-methylbenzylpiperid-4-yl)-2-methoxy-4-amino-5-nitrobenzamide] it was below 0.05 mg/kg.
As to `CCN1CCCC1CNC(=O)c1cc(S(N)(=O)=O)ccc1OC` (stereo not drawn) [Sulpiride, reference compound], the median effective dose (ED50) was above 800 mg/kg in assay [4] (setting [10]) and 0.141 mg/kg in assay [5] (setting [9]).
Take `COc1cc(N)c([N+](=O)[O-])cc1C(=O)NC1CCN(CC2=CCC=CC2)CC1` [compound 2, N-(1-Cyclohexa-1',4'-dienylmethylpiperid-4-yl)-2-methoxy-4-amino-5-nitrobenzamide]: the results for the ED50 in assay [4] (setting [7]) and in assay [5] (setting [8]) were 60 mg/kg and below 0.05 mg/kg, respectively.
For `COc1cc(N)c([N+](=O)[O-])cc1C(=O)NC1CCN(CCC2=CCC=CC2)CC1` [compound 3, N-[1-(2-cyclohexa-1',4'-dienylethyl)piperid-4-yl]-2-methoxy-4-amino-5-nitrobenzamide], in that order: above 300 mg/kg and above 0.5 mg/kg.
For `CCOc1cc(N)c([N+](=O)[O-])cc1C(=O)NC1CCN(CC2=CCC=CC2)CC1` [compound 4, N-(1-cyclohexa-1',4'-dienylmethylpiperid-4-yl)-2-ethoxy-4-amino-5-nitrobenzamide], the values for the ED50 in assay [4] (setting [7]) and in assay [5] (setting [8]) were 50 mg/kg and below 0.05 mg/kg, respectively.
On the same counts, the results for `CCOc1cc(N)c([N+](=O)[O-])cc1C(=O)NC1CCN(CC2=CCC(C)=CC2)CC1` [compound 5, N-[1-(4-methylcyclohexa-1,4-dienyl)methylpiperid-4-yl]-2-ethoxy-4-amino-5-nitrobenzamide] are 40 mg/kg and below 0.05 mg/kg.
Turning to `COc1cc(N)c([N+](=O)[O-])cc1C(=O)NC1CCN(CC2=CCC(C)=CC2)CC1` [compound 6, N-[1-(4-methylcyclohexa-1,4-dienyl)methylpiperid-4-yl]-2-methoxy-4-amino-5-nitrobenzamide], the ED50 in assay [4] (setting [7]) was 35 mg/kg; in assay [5] (setting [8]) it was below 0.05 mg/kg.
